Among the data in US7855290B2, “Pyridine derivatives and pyrimidine derivatives (3)” (Eisai R&D Management Co., Ltd., priority 2005, dated 2010) are IC50 values, retold here.

The test deals with T1, His6-HGFR (HGFR cytoplasmic domain) (Homo sapiens, UniProt P08581).
T1 construct: made in house; host or cells: Sf9 insect cells (Spodoptera frugiperda), baculovirus, pFastBac-HT vector
T1 sequence (P08581 956-1390 limits assumed): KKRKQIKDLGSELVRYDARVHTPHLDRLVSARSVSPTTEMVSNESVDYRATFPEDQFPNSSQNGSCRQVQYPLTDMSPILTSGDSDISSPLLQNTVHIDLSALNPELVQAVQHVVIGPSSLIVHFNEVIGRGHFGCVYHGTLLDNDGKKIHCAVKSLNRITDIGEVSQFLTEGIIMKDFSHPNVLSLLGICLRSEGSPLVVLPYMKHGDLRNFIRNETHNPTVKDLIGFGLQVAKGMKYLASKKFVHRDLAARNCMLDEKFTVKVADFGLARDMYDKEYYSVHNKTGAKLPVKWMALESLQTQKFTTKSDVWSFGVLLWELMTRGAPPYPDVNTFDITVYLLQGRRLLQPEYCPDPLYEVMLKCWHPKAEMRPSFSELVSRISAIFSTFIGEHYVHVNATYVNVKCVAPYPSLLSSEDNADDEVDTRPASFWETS
The test can be described thus: Inhibitory activity against HGFR tyrosine kinase activity (HTRF). The class given is biochemical. The settings on record: biotin-poly(GT), ATP, 30° C. 10 min. Put shortly:
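Sf9-expressed, Ni-NTA-purified N-terminal His6-tagged HGFR cytoplasmic domain (from Lys974), 30 ng, phosphorylates 250 ng biotin-poly(GT) in Hepes pH 7.4 with MgCl2, MnCl2 and Na3VO4. Reaction started with 4 μM ATP stock, run 10 min at 30° C, stopped with EDTA. Phosphotyrosine is detected by HTRF.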
For orientation: TR-FRET usually uses a lanthanide donor and a delayed reading to cut background.
Consider `CN1CCN(C2CCN(C(=O)Nc3cc(Oc4ccc(NC(=O)C5(C(=O)Nc6ccc(F)cc6)CC5)cc4F)ccn3)CC2)CC1` [Example 20, N-(3-Fluoro-4-{[2-({[-4-(4-methylpiperazin-1-yl)piperidin-1-yl]-carbonyl}amino)pyridin-4-yl]oxy}phenyl)-N′-(4-fluorophenyl)cyclopropane-1,1-dicarboxamide], for which the IC50 (in general, the concentration needed to halve the response being measured) was determined as 59 nM. In turn, `CN1CCN(C(=O)Nc2cc(Oc3cc(F)c(NC(=O)C4(C(=O)Nc5ccc(F)cc5)CC4)cc3F)ccn2)CC1` [Example 104, N-{2,5-Difluoro-4-[(2-{[(4-methylpiperazin-1-yl)carbonyl]amino}pyridin-4-yl]oxy}phenyl)-N′-(4-fluorophenyl)cyclopropane-1,1-dicarboxamide] came in with an IC50 of 71 nM. In turn, `CN1CCN(C2CCN(C(=O)Nc3cc(Oc4ccc(NC(=O)C5(C(=O)Nc6ccc(F)cc6)CC5)cc4)ccn3)CC2)CC1` [Example 32, N-(4-Fluorophenyl)-N′-(4-{[2-({[4-(4-methylpiperazin-1-yl)piperidin-1-yl]carbonyl}amino)pyridin-4-yl]oxy}phenyl)cyclopropane-1,1-dicarboxamide] showed an IC50 of 50 nM.

`O=C(Nc1cc(Oc2ccc(NC(=O)C3(C(=O)Nc4ccc(F)cc4)CC3)c(F)c2)ccn1)N1CC(CO)C1` [Example 75] had a half-maximal inhibitory concentration (IC50) of 10 nM.

Compound `O=C(Nc1cc(Oc2ccc(NC(=O)C3(C(=O)Nc4ccc(F)cc4)CC3)c(F)c2)ccn1)N1CCC(N2CCNCC2)CC1` [Example 71, N-(4-Fluorophenyl)-N′-{2-fluoro-4-[(2-{[(4-piperazin-1-ylpiperidin-1-yl)carbonyl]amino}pyridin-4-yl)oxy]phenyl}cyclopropane-1,1-dicarboxamide] gave a 50% inhibitory concentration (IC50) of 121 nM. The value for `O=C(Nc1cc(Oc2ccc(NC(=O)C3(C(=O)Nc4ccc(F)cc4)CC3)cc2F)ccn1)N1CCC1` [Example 65, N-[4-({2-[(Azetidin-1-ylcarbonyl)amino]pyridin-4-yl}oxy)-3-fluorophenyl]-N′-(4-fluorophenyl)cyclopropane-1,1-dicarboxamide] was 15 nM. The value for `CN1CCC(N(C)C(=O)Nc2cc(Oc3ccc(NC(=O)C4(C(=O)Nc5ccc(F)cc5F)CC4)c(F)c3)ccn2)CC1` [Example 56, N-(2,4-Difluorophenyl)-N′-(2-fluoro-4-{[2-({[methyl(1-methylpiperidin-4-yl)amino]carbonyl}amino)pyridin-4-yl]oxy}phenyl)cyclopropane-1,1-dicarboxamide] was 110 nM; that for `O=C(Nc1cc(Oc2ccc(NC(=O)C3(C(=O)Nc4ccc(F)cc4)CC3)cc2)ccn1)N1CCC(CN2CCCC2)CC1` [Example 29, N-(4-Fluorophenyl)-N′-(4-{[2-({[4-(pyrrolidin-1-ylmethyl)piperidin-1-yl]-carbonyl}amino)pyridin-4-yl]oxy}phenyl)cyclopropane-1,1-dicarboxamide] was 63 nM; that for `CN(C)[C@@H]1CCN(C(=O)Nc2cc(Oc3ccc(NC(=O)C4(C(=O)Nc5ccc(F)cc5)CC4)cc3)ccn2)C1` [Example 42, N-(4-{[2-({[(3R)-3-(Dimethylamino)pyrrolidin-1-yl]carbonyl}amino)pyridin-4-yl]oxy}phenyl)-N′-(4-fluorophenyl)cyclopropane-1,1-dicarboxamide] was 57 nM.

As to `CN1CCC(N2CCN(C(=O)Nc3cc(Oc4ccc(NC(=O)C5(C(=O)Nc6ccc(F)cc6)CC5)cc4F)ccn3)CC2)CC1` [Example 19, N-(3-Fluoro-4-{[2-({[4-(1-methylpiperidin-4-yl)piperazin-1-yl]carbonyl}amino)pyridin-4-yl]oxy}phenyl)-N′-(4-fluorophenyl)cyclopropane-1,1-dicarboxamide], the half-inhibitory concentration (IC50) turned out to be 61 nM. The value for `O=C(Nc1cc(Oc2ccc(NC(=O)C3(C(=O)Nc4ccc(F)cc4)CC3)c(F)c2)ccn1)N1CCCC1` [Example 62, N-(4-Fluorophenyl)-N′-[2-fluoro-4-({2-[(pyrrolidin-1-ylcarbonyl)amino]pyridin-4-yl}oxy)phenyl]cyclopropane-1,1-dicarboxamide] was 20 nM.
